What was measured:
[1] = biological target: Heat shock protein HSP 90-alpha (Homo sapiens) (UniProt P07900); assay: Inhibition of human His-tagged Hsp90 alpha N-terminal domain ATPase activity expressed in Escherichia coli BL21(DE3) at 3.125 uM assessed as ADP formation by pyruvate kinase/lactate dehydrogenase-coupled assay
[2] = biological target: Heat shock protein HSP 90-alpha (Homo sapiens) (UniProt P07900); assay: Inhibition of human His-tagged Hsp90 alpha N-terminal domain ATPase activity expressed in Escherichia coli BL21(DE3) at 12.5 uM assessed as ADP formation by pyruvate kinase/lactate dehydrogenase-coupled assay
[3] = biological target: Heat shock protein HSP 90-alpha (Homo sapiens) (UniProt P07900); assay: Inhibition of human His-tagged Hsp90 alpha N-terminal domain ATPase activity expressed in Escherichia coli BL21(DE3) at 50 uM assessed as ADP formation by pyruvate kinase/lactate dehydrogenase-coupled assay
[4] = biological target: Heat shock protein HSP 90-alpha (Homo sapiens) (UniProt P07900); assay: Inhibition of human His-tagged Hsp90 alpha N-terminal domain ATPase activity expressed in Escherichia coli BL21(DE3) at 100 uM assessed as ADP formation by pyruvate kinase/lactate dehydrogenase-coupled assay
[5] = biological target: Heat shock protein HSP 90-alpha (Homo sapiens) (UniProt P07900); assay: Inhibition of human His-tagged Hsp90 alpha N-terminal domain ATPase activity expressed in Escherichia coli BL21(DE3) at 25 uM assessed as ADP formation by pyruvate kinase/lactate dehydrogenase-coupled assay
[6] = biological target: Heat shock protein HSP 90-alpha (Homo sapiens) (UniProt P07900); assay: Inhibition of human His-tagged Hsp90 alpha N-terminal domain ATPase activity expressed in Escherichia coli BL21(DE3) at 6.25 uM assessed as ADP formation by pyruvate kinase/lactate dehydrogenase-coupled assay

Activity [1] [nmol/min/mg] | Activity [2] [nmol/min/mg] | Activity [3] [nmol/min/mg] | Activity [4] [nmol/min/mg] | Activity [5] [nmol/min/mg] | Activity [6] [nmol/min/mg] | SMILES
88.8 | 74.1 | 61 | 49.8 | 70.4 | 83.5 | CCn1cc(C(=O)NC(=S)Nc2ccc(Cl)cc2)c(-c2ccccc2)nc1=O
92.6 | 72 | 38.2 | 27.6 | 53.1 | 84.1 | CCn1cc(C(=O)NC(=S)Nc2ccc(F)cc2)c(-c2ccccc2)nc1=O
81.1 | 37.7 | 16.2 | 11.4 | 28.5 | 59.4 | CCn1cc(C(=O)NC(=S)Nc2ccc(OC)cc2)c(-c2ccccc2)nc1=O
80.1 | 39.7 | 16.4 | 13.5 | 26.6 | 63.6 | CCn1cc(C(=O)NC(=S)Nc2ccc(Br)cc2)c(-c2ccccc2)nc1=O
93.5 | 73.4 | 51.1 | 37.5 | 64 | 87.1 | CCn1cc(C(=O)NC(=S)Nc2ccc(C(N)=O)cc2)c(-c2ccccc2)nc1=O
90.2 | 72.9 | 43.4 | 33.1 | 55 | 80.5 | CCn1cc(C(=O)NC(=S)Nc2ccc(C)cc2)c(-c2ccccc2)nc1=O
90.2 | 75.1 | 50.2 | 35.9 | 61.2 | 80 | CCn1cc(C(=O)NC(=S)NCc2ccccc2)c(-c2ccccc2)nc1=O
93.5 | 70.9 | 38 | 28.9 | 50.1 | 85.7 | CCn1cc(C(=O)NC(=S)Nc2ccccc2C)c(-c2ccccc2)nc1=O
85.3 | 60.8 | 32 | 26.1 | 40.4 | 70.3 | CCn1cc(C(=O)NC(=S)Nc2ccccc2)c(-c2ccccc2)nc1=O
75.5 | 36.1 | 13.2 | 8.19 | 24.4 | 49.5 | CCn1cc(C(=O)NC(=S)Nc2cccc3ccccc23)c(-c2ccccc2)nc1=O

Reference: ChEMBL document CHEMBL3867422, “Design and synthesis of pyrimidinyl acyl thioureas as novel Hsp90 inhibitors in invasive ductal breast cancer and its bone metastasis” (Eur J Med Chem, 2016)
